Literature values as cited in article PMC3171802 (Chemistry & biology, 2011).

Test system: Ba/F3 cells transformed to IL-3 independence by overexpression of PIM1 or PIM2
Conditions: ref Pogacic et al., 2007

For `CC(=O)c1cccc(-c2cnc3ccc(NCC4CC4)nn23)c1` [Compound K00135], the “survival of Ba/F3 cells transformed by PIM1 or PIM2” value is given as “significantly impaired survival”.
